The record followed here is US9504675B2, “Alpha-ketoheterocycles and methods of making and using” (The Scripps Research Institute, priority 2011, dated 2016).

Where two headings read alike, the source gives them in different places.

This assay concerns the target T1, recombinant rat FAAH (rFAAH) (Rattus norvegicus, UniProt P97612).
T1 construct: The truncated rat FAAH (rFAAH) was expressed in E. coli and purified; made in house; host or cells: Escherichia coli
T1 sequence (P97612 30-579 limits assumed): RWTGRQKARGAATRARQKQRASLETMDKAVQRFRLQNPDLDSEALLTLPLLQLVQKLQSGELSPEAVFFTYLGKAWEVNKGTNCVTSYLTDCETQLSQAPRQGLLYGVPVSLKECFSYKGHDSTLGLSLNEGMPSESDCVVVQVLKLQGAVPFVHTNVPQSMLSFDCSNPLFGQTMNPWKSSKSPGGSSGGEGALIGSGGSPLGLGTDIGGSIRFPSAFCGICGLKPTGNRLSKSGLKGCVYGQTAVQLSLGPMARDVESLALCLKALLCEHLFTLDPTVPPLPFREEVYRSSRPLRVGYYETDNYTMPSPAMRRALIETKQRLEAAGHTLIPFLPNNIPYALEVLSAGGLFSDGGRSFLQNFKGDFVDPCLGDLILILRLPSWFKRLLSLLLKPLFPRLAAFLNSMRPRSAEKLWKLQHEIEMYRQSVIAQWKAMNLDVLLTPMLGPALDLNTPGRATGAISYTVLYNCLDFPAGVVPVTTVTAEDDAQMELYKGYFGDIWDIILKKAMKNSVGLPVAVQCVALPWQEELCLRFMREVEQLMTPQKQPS
Description: Enzyme assay: inhibition of purified recombinant rat FAAH, 14C-oleamide hydrolysis, Ki by Dixon plot. The format is biochemical. As for the experimental part:
Enzyme assays were performed at 20-23° C. with purified recombinant rat FAAH expressed in Escherichia coli or with solubilized COS-7 membrane extracts from cells transiently transfected with human FAAH cDNA (where specifically indicated) in a buffer of 125 mM Tris/1 mM EDTA/0.2% glycerol/0.02% Triton X-100/0.4 mM Hepes, pH 9.0.
^14C-labeled oleamide was prepared from ^14C-labeled oleic acid. The truncated rat FAAH (rFAAH) was expressed in E. coli and purified. The purified recombinant rFAAH was used in the inhibition assays unless otherwise indicated. The full-length human FAAH (hFAAH) was expressed in COS-7 cells as described, and the lysate of hFAAH-transfected COS-7 cells was used in the inhibition assays where explicitly indicated.
The inhibition assays were performed as follows. […] The enzyme reaction was terminated by transferring 20 μL of the reaction mixture to 500 μL of 0.1 N HCl at three different time points. The ^14C-labeled oleamide (substrate) and oleic acid (product) were extracted with EtOAc and analyzed by TLC as detailed. The Ki of the inhibitor was calculated using a Dixon plot as described (standard deviations are provided in the Supporting Information tables).

The mark [1] stands for this setting: Ki, Table 4, (R)-enantiomer, additional FAAH inhibitors.
Setting [2] is: Ki, Table 2, (S)-enantiomer, 1,2,3,4-tetrahydronaphthalene C2 acyl side chain.
Where [3] appears, read: Ki, Table 2, (R)-enantiomer, 1,2,3,4-tetrahydronaphthalene C2 acyl side chain.
Setting [4] is: Ki, Table 3, tentatively assigned (S)-enantiomer, indane C2 acyl side chain.
[5] abbreviates: Ki, Table 3, (R)-enantiomer, indane C2 acyl side chain.

As to `O=C(c1ncc(-c2ccccn2)o1)C1CCc2ccccc2C1` (single isomer, unassigned) [(R)-38, (5-(Pyridin-2-yl)oxazol-2-yl)(1,2,3,4-tetrahydronaphthalen-2-yl)methanone], the inhibition constant Ki under setting [1] worked out at 3200 nM.

With `O=C(c1ncco1)C1Cc2ccccc2C1` [Compound 39, (Indan-2-yl)(oxazol-2-yl)methanone], the inhibitory constant (Ki) (Table 4, meso indane derivatives without aryl substituent, read-out: Ki) turned out to be 7100 nM.

As to `O=C(O)c1cccc(-c2cnc(C(=O)C3CCc4cc(-c5ccccc5)ccc4C3)o2)n1` (single isomer, unassigned) [(S)-8, 6-(2-(6-Phenyl-1,2,3,4-tetrahydronaphthalene-2-carbonyl)oxazol-5-yl)picolinic acid], under setting [2], the inhibitory constant (Ki) came to 39 nM.

In the case of `O=C(O)c1cccc(-c2cnc(C(=O)C3CCc4cc(OCc5ccccc5)ccc4C3)o2)n1` (single isomer, unassigned) [(R)-20, 6-(2-(6-(Benzyloxy)-1,2,3,4-tetrahydronaphthalene-2-carbonyl)oxazol-5-yl)picolinic acid], the Ki under setting [3] came to 740 nM.

Consider `COC(=O)c1cccc(-c2cnc(C(=O)C3CCc4cc(Oc5ccccc5)ccc4C3)o2)n1` (single isomer, unassigned) [(S)-13, Methyl 6-(2-(6-Phenoxy-1,2,3,4-tetrahydronaphthalene-2-carbonyl)oxazol-5-yl)picolinate], for which the inhibition constant (Ki) under setting [2] is 2.2 nM.

For the compound `N#Cc1cnc(C(=O)C2CCc3cc(-c4ccccc4)ccc3C2)o1` (single isomer, unassigned) [(S)-5, 2-(6-Phenyl-1,2,3,4-tetrahydronaphthalene-2-carbonyl)oxazole-5-carbonitrile], the inhibition constant Ki under setting [2] came to 3.4 nM.

Take `O=C(c1ncc(-c2ccccn2)o1)C1CCc2cc(Oc3ccccc3)ccc2C1` (single isomer, unassigned) [(R)-12, (6-Phenoxy-1,2,3,4-tetrahydronaphthalen-2-yl)(5-(pyridin-2-yl)oxazol-2-yl)methanone]: the Ki under setting [3] stood at 290 nM.

For the compound `O=C(c1ncco1)C1Cc2ccc(Oc3ccccc3)cc2C1` (single isomer, unassigned) [(S)-26, Oxazol-2-yl(5-phenoxyindan-2-yl)methanone], the inhibitory constant (Ki) under setting [4] is 10 nM.

With `O=C(c1ncco1)C1CCc2cc(OCc3ccccc3)ccc2C1` (single isomer, unassigned) [(R)-15, (6-(Benzyloxy)-1,2,3,4-tetrahydronaphthalen-2-yl)(oxazol-2-yl)methanone], under setting [3], the inhibition constant Ki was determined as 87 nM.

For `O=C(c1ncco1)C1Cc2ccc(Oc3ccccc3)cc2C1` (single isomer, unassigned) [(R)-26, Oxazol-2-yl(5-phenoxyindan-2-yl)methanone], under setting [5], the Ki stood at 200 nM.

`COC(=O)c1cccc(-c2cnc(C(=O)C3CCc4cc(-c5ccccc5)ccc4C3)o2)n1` (single isomer, unassigned) [(S)-7, Methyl 6-(2-(6-Phenyl-1,2,3,4-tetrahydronaphthalene-2-carbonyl)oxazol-5-yl)picolinate]: the Ki under setting [2] came to 27 nM.

In the case of `O=C(c1nnc(-c2ccccn2)o1)C1CCc2cc(Oc3ccccc3)ccc2C1` (single isomer, unassigned) [(S)-36, (6-Phenoxy-1,2,3,4-tetrahydronaphthalen-2-yl)(5-(pyridin-2-yl)-1,3,4-oxadiazol-2-yl)methanone], where the note is “Ki, Table 4, (S)-enantiomer, additional FAAH inhibitors”, the inhibition constant Ki stood at 1 nM.

`O=C(c1ncco1)C1CCc2cc(OCc3ccccc3)ccc2C1` (single isomer, unassigned) [(S)-15, (6-(Benzyloxy)-1,2,3,4-tetrahydronaphthalen-2-yl)(oxazol-2-yl)methanone]: the inhibition constant Ki under setting [2] was 6.1 nM.

For the compound `O=C(c1ncc(-c2ccccn2)o1)C1CCc2cc(-c3ccccc3)ccc2C1` (single isomer, unassigned) [(R)-6, (6-Phenyl-1,2,4-tetrahydronaphthalen-2-yl)(5-(pyridin-2-yl)oxazol-2-yl)methanone], the inhibition constant (Ki) under setting [3] was determined as 240 nM.

Regarding `COC(=O)c1cccc(-c2cnc(C(=O)C3CCc4cc(OCc5ccccc5)ccc4C3)o2)n1` (single isomer, unassigned) [(S)-19, Methyl 6-(2-(6-(Benzyloxy)-1,2,3,4-tetrahydronaphthalene-2-carbonyl)oxazol-5-yl)picolinate], the Ki under setting [2] came to 18 nM.

As to `O=C(O)c1cccc(-c2cnc(C(=O)C3Cc4ccc(OCc5ccccc5)cc4C3)o2)n1` (single isomer, unassigned) [(S)-33, 6-(2-(5-(Benzyloxy)indane-2-carbonyl)oxazol-5-yl)picolinic acid], the Ki under setting [4] was determined as 51 nM.

As for `COC(=O)c1cccc(-c2cnc(C(=O)C3Cc4ccc(Oc5ccccc5)cc4C3)o2)n1` (single isomer, unassigned) [(S)-28], under setting [4], the Ki was 98 nM.

For the compound `O=C(c1ncco1)C1CCc2cc(-c3ccccc3)ccc2C1` (single isomer, unassigned) [(S)-3, Oxazol-2-yl(6-phenyl-1,2,3,4-tetrahydronaphthalen-2-yl)methanone], the Ki under setting [2] amounted to 57 nM.

Consider `O=C(c1ncc(-c2ccccn2)o1)C1Cc2ccccc2C1` [Compound 40, (Indan-2-yl)(5-(pyridin-2-yl)oxazol-2-yl)methanone], for which the “Ki relative to the FAAH inhibitor lacking the conformational constraints (Ki=200 nM)” value is reported as 5 fold. Besides, the Ki (read-out: Ki) came out at 1100 nM.

Regarding `N#Cc1cnc(C(=O)C2CCc3cc(OCc4ccccc4)ccc3C2)o1` (single isomer, unassigned) [(R)-17, 2-(6-(Benzyloxy)-1,2,3,4-tetrahydronaphthalene-2-carbonyl)oxazole-5-carbonitrile], the inhibition constant Ki under setting [3] is 120 nM.

For the compound `COC(=O)c1cccc(-c2cnc(C(=O)C3CCc4cc(-c5ccccc5)ccc4C3)o2)n1` (single isomer, unassigned) [(R)-7, Methyl 6-(2-(6-Phenyl-1,2,3,4-tetrahydronaphthalene-2-carbonyl)oxazol-5-yl)picolinate], under setting [3], the Ki was determined as 700 nM.

Regarding `O=C(c1ncc(-c2ccccn2)o1)C1CCc2cc(OCc3ccccc3)ccc2C1` (single isomer, unassigned) [(R)-18, (6-(Benzyloxy)-1,2,3,4-tetrahydronaphthalen-2-yl)(5-(pyridin-2-yl)oxazol-2-yl)methanone], under setting [3], the inhibitory constant (Ki) is 300 nM.

Turning to `O=C(c1ncc(-c2ccccn2)o1)C1CCc2cc(Oc3ccccc3)ccc2C1` (single isomer, unassigned) [(S)-12, (6-Phenoxy-1,2,3,4-tetrahydronaphthalen-2-yl)(5-(pyridin-2-yl)oxazol-2-yl)methanone], the Ki under setting [2] is 4.4 nM.

As to `O=C(c1ncco1)C1CCc2ccccc2C1` (stereo not drawn) [Compound 37, Oxazol-2-yl(1,2,3,4-tetrahydronaphthalen-2-yl)methanone], the “improvement in potency relative to the corresponding oxazole 9” value ((S)-enantiomer) is recorded as 4-5 fold. In addition, the Ki (Ki, first of the two enantiomers, text b169, enantiomer distinction 5.1 vs 12 μM) is 5100 nM and the Ki (Ki, second of the two enantiomers, text b169, enantiomer distinction 5.1 vs 12 μM) came to 12000 nM. Also, the “potency of more active (S)-enantiomer over (R)-enantiomer” value (ratio of FAAH inhibition between enantiomers) was “ca. 2 fold”.

For the compound `O=C(c1ncc(-c2ccccn2)o1)C1CCc2cc(OCc3ccccc3)ccc2C1` (single isomer, unassigned) [(S)-18, (6-(Benzyloxy)-1,2,3,4-tetrahydronaphthalen-2-yl)(5-(pyridin-2-yl)oxazol-2-yl)methanone], under setting [2], the Ki came to 3.2 nM.

`O=C(c1ncco1)C1Cc2ccc(-c3ccccc3)cc2C1` (single isomer, unassigned) [(R)-22, Oxazol-2-yl(5-phenylindan-2-yl)methanone]: under setting [5], the Ki was found to be 140 nM.

In the case of `COC(=O)c1nnc(C(=O)C2CCc3cc(Oc4ccccc4)ccc3C2)o1` (single isomer, unassigned) [(R)-35, Methyl 5-(6-Phenoxy-1,2,3,4-tetrahydronaphthalene-2-carbonyl)-[1,3,4]oxadiazole-2-carboxylate], the inhibition constant Ki under setting [1] was found to be 1.6 nM.

Take `N#Cc1cnc(C(=O)C2CCc3cc(-c4ccccc4)ccc3C2)o1` (single isomer, unassigned) [(R)-5, 2-(6-Phenyl-1,2,3,4-tetrahydronaphthalene-2-carbonyl)oxazole-5-carbonitrile]: the Ki under setting [3] is 62 nM.

As to `O=C(O)c1cccc(-c2cnc(C(=O)C3CCc4cc(Oc5ccccc5)ccc4C3)o2)n1` (single isomer, unassigned) [(R)-14, 6-(2-(6-Phenoxy-1,2,3,4-tetrahydronaphthalene-2-carbonyl)oxazol-5-yl)picolinic acid], under setting [3], the inhibitory constant (Ki) turned out to be 220 nM.

One may read the Ki as the equilibrium dissociation constant of an inhibitor or competing ligand from its target.
